Test results: patent US8338565B2, “Macrocyclic compounds for inhibition of tumor necrosis factor alpha” (Ensemble Therapeutics Corporation, priority 2008, dated 2012)
pIC50: −log10 of the molar value. Read-outs that look alike come from different tables or passages of the source. Numbered stars: 1 amine (or outer) side, 2 acyl side, 3 side chain; on linkers, the order of the positions; unused ones are H or OH. Bridge positions count the residues as written; N and C are the ends. Square brackets hold non-standard residues; d marks the D form. Peptide text beside a SMILES is read from it. Phe(4-CF3) = N[C@@H](Cc1ccc(C(F)(F)F)cc1)C(=O)O; Phe(4-NH2) = Nc1ccc(C[C@H](N)C(=O)O)cc1; d(hPhe) = N[C@H](CCc1ccccc1)C(=O)O; Suc = O=C(CCC(=O)[*:2])[*:1]

Columns and labels:
rat paw edema model = assay: Rat paw edema model (carrageenan), anti-inflammatory activity; assay type: in vivo, Sprague-Dawley (SD) rats
Procedure: Compounds 3, 4, 10 and 202 were tested in a rat paw edema model to determine anti-inflammatory activity. Seven groups (one for Vehicle A [15 mL PEG400, 3 mL Graves Grain alcohol (190 proof), 1.8 mL dimethylacetamide and 10.2 mL deionized water] alone as a negative control, one for Vehicle B [0.1M NaHCO3] alone as a negative control, one for each of the four test compounds dissolved in Vehicle A, and one for indomethacin dissolved in Vehicle B as a positive control), each group containing six Sprague-Dawley (SD) rats (180-200 g) randomized by weight. Initial paw volumes were measured by placing the right hind limb of the rat up to the top of the hock in a beaker of water sitting on a scale that had been tared to zero and recording the readout.
Rats were pre-treated with either i) one of the test compounds, or ii) a positive or negative control. Vehicle A alone and test compound dissolved in Vehicle A (Compound 3-1.0 mg/kg; Compound 4-0.4 mg/kg; Compound 10-0.5 mg/kg; Compound 202-0.3 mg/kg) were administered by intravenous injection. Vehicle B alone and indomethacin (5 mg/kg in 0.1M NaHCO3) was administered by intraperitoneal injection. Thirty minutes after this pretreatment, rats were anesthetized and injected with 0.1 mL of carrageenan (10 mg/mL in water) in the subplantar region of the right hind foot using a ½ inch 26 gauge needle attached to a 1 cc syringe.
At 2, 4 and 6 hours post-carrageenan injection, the right hind foot of each rat was measured for paw volume as described above.
We next investigated the effect of varying intravenous doses of Compound 202 (0.05, 0.10, 0.30, and 1.00 mg/kg) in the same model using the same protocol (6 rats per group). […] We also investigated the affect of oral dosing (10 mg/kg) of Compound 202 in the same model. For oral dosing, a 2.5 mg/mL suspension of Compound 202 was prepared in Vehicle A. Rats were orally administered 4 mL/kg of that suspension.

[1] = test system: TNF-α (degradation of IkB in HeLa cells or A431 cells); assay: Human cell-based assay: inhibition of TNF-α induced degradation of IkB; conditions: for inhibition at 5 µM: read-out: Inhibition at Various Compound Concentrations, 5 μM; for inhibition at 10 µM: read-out: Inhibition at Various Compound Concentrations, 10 μM
[2] = molecular target: T1, TNFα / TNFα receptor (TNFα R1/Fc) (Homo sapiens, UniProt P01375); assay: Inhibition of binding of TNFα to the TNFα receptor (plate ELISA competition); conditions: Table 2
T1 construct: purchased R&D Systems
Method in brief: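 Plates were coated with TNFα at 15 nM. Test compound and 8.33 nM receptor-Fc (PBST, 2% DMSO) were first mixed in solution for 30 min at room temperature, then transferred to the plates for another 30 min. Competition was read by absorbance at 450 nm after HRP anti-human IgG Fc detection with TMB.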

[3] = Table 6, 1 mg/kg IV, 2 h post-carrageenan
[4] = Table 6, 1 mg/kg IV, 4 h post-carrageenan
[5] = Table 6, 1 mg/kg IV, 6 h post-carrageenan
[6] = 5 μM compound, HeLa or A431 cells
[7] = 10 μM compound, HeLa or A431 cells
[8] = read-out: Activity (IC50, inhibition of TNFα binding to TNFα R1/Fc)
[9] = Table 7, 1 mg/kg IV, 2 h post-carrageenan
[10] = Table 7, 1 mg/kg IV, 4 h post-carrageenan
[11] = Table 7, 1 mg/kg IV, 6 h post-carrageenan

T1 sequence (P01375 77-233 limits assumed, species assumed): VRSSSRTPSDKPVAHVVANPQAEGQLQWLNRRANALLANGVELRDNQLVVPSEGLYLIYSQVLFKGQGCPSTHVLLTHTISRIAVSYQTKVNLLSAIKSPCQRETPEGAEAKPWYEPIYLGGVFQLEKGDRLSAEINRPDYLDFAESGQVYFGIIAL

Row | SMILES | inhibition at 5 µM [1, 6] [%] | inhibition at 10 µM [1, 7] [%] | pIC50 [2, 8] | Change in Paw Volume (rat paw edema model; [9]) [mL] | Change in Paw Volume (rat paw edema model; [10]) [mL] | Change in Paw Volume (rat paw edema model; [11]) [mL] | further results
1 | O=C1COc2ccc(cc2)C[C@@H](C(=O)O)NC(=O)[C@H](CCc2ccccc2)NC(=O)[C@@H](Cc2ccc(-c3ccccc3)cc2)NC(=O)[C@H](Cc2cccs2)N1 [Compound 348] | 10 to 50 | 50 to 80 | > 5.00 | – | – | – | Change in Paw Volume (rat paw edema model; [3]): 1.13 ± 0.10 mL; Change in Paw Volume (rat paw edema model; [4]): 1.30 ± 0.20 mL; Change in Paw Volume (rat paw edema model; [5]): 1.32 ± 0.11 mL
2 | O=C(O)[C@@H]1Cc2ccc(cc2)NC(=O)[C@H](O)[C@@H](O)C(=O)N[C@H](Cc2cccs2)C(=O)N[C@@H](Cc2ccc(-c3ccccc3)cc2)C(=O)N[C@H](Cc2ccccc2)C(=O)N1 [Compound 4] | – | < 10 | 4.52 to 5.00 | – | – | – | Change in Paw Volume (rat paw edema model; Table 3, 0.4 mg/kg IV, 2 h post-carrageenan): 0.72 ± 0.13 mL; Change in Paw Volume (rat paw edema model; Table 3, 0.4 mg/kg IV, 4 h post-carrageenan): 1.16 ± 0.16 mL; Change in Paw Volume (rat paw edema model; Table 3, 0.4 mg/kg IV, 6 h post-carrageenan): 1.16 ± 0.25 mL
3 | O=C1CCC(=O)N[C@H](CCc2ccccc2)C(=O)N[C@@H](Cc2ccc(C(F)(F)F)cc2)C(=O)N[C@H](Cc2ccccc2)C(=O)N[C@H](C(=O)N[C@@H](Cc2ccccc2)C(=O)O)Cc2ccc(cc2)N1 [Compound 11] ([d(hPhe)][Phe(4-CF3)][dF][Phe(4-NH2)]F-OH; linker N-4 via Suc) | 10 to 50 | 50 to 80 | > 5.00 | – | – | – | Change in Paw Volume (rat paw edema model; Table 4, 1 mg/kg IV, 2 h post-carrageenan): 1.37 ± 0.16 mL; Change in Paw Volume (rat paw edema model; Table 4, 1 mg/kg IV, 4 h post-carrageenan): 1.43 ± 0.13 mL; Change in Paw Volume (rat paw edema model; Table 4, 1 mg/kg IV, 6 h post-carrageenan): 1.45 ± 0.08 mL
4 | O=C1COc2ccc(cc2)C[C@@H](C(=O)O)NC(=O)[C@H](Cc2ccc(O)cc2)NC(=O)[C@H](Cc2ccc(-c3ccccc3)cc2)NC(=O)[C@H](Cc2cccs2)N1 [Compound 428] | – | – | > 5.00 | – | – | – | Change in Paw Volume (rat paw edema model; Table 8, 1 mg/kg IV, 2 h post-carrageenan): 1.27 ± 0.15 mL; Change in Paw Volume (rat paw edema model; Table 8, 1 mg/kg IV, 4 h post-carrageenan): 1.43 ± 0.22 mL; Change in Paw Volume (rat paw edema model; Table 8, 1 mg/kg IV, 6 h post-carrageenan): 1.39 ± 0.22 mL; inhibition at 5 µM [1]: < 10%; inhibition at 10 µM [1]: < 10%
5 | O=C(O)[C@@H]1Cc2ccc(cc2)NC(=O)[C@H](O)[C@@H](O)C(=O)N[C@H](Cc2cccs2)C(=O)N[C@@H](Cc2ccc(-c3ccncc3)cc2)C(=O)N[C@H](Cc2ccccc2)C(=O)N1 [Compound 330] | > 80 | 10 to 50 | > 5.00 | – | – | – | Change in Paw Volume (rat paw edema model; [3]): 1.20 ± 0.20 mL; Change in Paw Volume (rat paw edema model; [4]): 1.32 ± 0.17 mL; Change in Paw Volume (rat paw edema model; [5]): 1.33 ± 0.22 mL
6 | O=C(O)[C@H](Cc1ccccc1)NC(=O)[C@@H]1Cc2ccc(cc2)NC(=O)[C@H](O)[C@@H](O)C(=O)N[C@H](Cc2cccs2)C(=O)N[C@@H](Cc2ccc(-c3ccccc3)cc2)C(=O)N[C@H](Cc2ccccc2)C(=O)N1 [Compound 174] | < 10 | 10 to 50 | > 5.00 | 1.22 ± 0.08 | 1.53 ± 0.13 | 1.70 ± 0.22 | –
7 | O=C1COc2ccc(cc2)C[C@@H](C(=O)N[C@@H](Cc2ccccc2)C(=O)O)NC(=O)[C@@H](CCc2ccccc2)NC(=O)[C@H](Cc2ccc(-c3ccccc3)cc2)NC(=O)[C@@H](Cc2cccs2)N1 [Compound 156] | – | – | – | 1.49 ± 0.24 | 1.51 ± 0.12 | 1.81 ± 0.16 | inhibition at 5 µM [1]: 50 to 80%; inhibition at 10 µM [1]: > 80%; pIC50 ([2]; Activity (IC50, inhibition of TNFα binding to TNFα R1/Fc)): > 5.00
8 | O=C(O)[C@@H]1Cc2ccc(cc2)NC(=O)[C@H](O)[C@@H](O)C(=O)N[C@@H](Cc2cccs2)C(=O)N[C@@H](Cc2ccc(-c3ccccc3)cc2)C(=O)N[C@@H](Cc2ccccc2)C(=O)N1 [Compound 273] | 10 to 50 | < 10 | < 4.00 | 1.13 ± 0.09 | 1.52 ± 0.12 | 1.59 ± 0.16 | –
